Columns and labels:
Beta-TC-6 cells = test: Insulin release enhancement in Beta-TC-6 cells (insulin ELISA); type: cell-based, mouse; settings: for glucose dependence of stimulation of insulin release: varying glucose concentration, FIG. 3 and FIG. 7; for Percent Enhancement of Insulin Secretion (10 μM): compound at 10 μM
Description: Beta-TC-6 cells are an insulin-secreting cell line derived from transgenic mice expressing the large T-antigen of simian virus 40 (SV40) in pancreatic beta-cells as described by Poitout et al., Diabetes, 44:306-313 (1995). The cell line was obtained from ATCC cell bank CAT# CRL-11506 and grown in Dulbecco's Modified Eagle's Medium (DMEM) with 15% fetal bovine serum (FBS), 4 mM glutamine, 4.5 mM glucose 1500 mg/L sodium bicarbonate and 1× penn/strep antibiotic mix in a 37° C. incubator with 5% CO2. Cultures were routinely split 1:2 twice a week with the aid of trypsin.
On the day before the assay 0.1×10^6 Beta-TC-6 cells were plated into each well of 96 well plates, and the cells cultured overnight in growth media.
On the next day, growth media was removed from the plate and the monolayers rinsed with phosphate buffered saline (PBS) and pre-incubated 30 mins at 37° C. in Krebs-Ringer Bicarbonate Buffer (KRBB) consisting of 118.5 mM NaCl, 2.54 mM CaCl2, 1.19 mM KH2PO4, 4.74 mM KCl, 25 mM NaHCO3, 1.19 mM MgSO4, 10 mM HEPES buffer and 0.1% bovine serum albumin at pH 7.4. This buffer was removed and replaced with 100 μL of the same buffer containing various insulin release modulators: including various concentrations of glucose up to 12 mM and compounds up to 100 μM. Compounds stock solutions, e.g. 10-20 mM, were diluted in DMSO. Final DMSO concentrations in incubation buffer were 0.5% or less. Vehicle controls were included. Static incubations were then performed for 2 h at 37° C. The entire incubation volume was collected after the 2 h incubation for insulin assay.
ELISA Protocol for insulin determinations. The following protocol was used for doing ELISA using the Rat/Mouse Insulin ELISA Kit from Linco Research, Inc., CAT#EZRMI-13K and Amplex® Red Hydrogen Peroxide/Peroxidase Assay Kit, CAT#A22188, and Amplex® Red reagent (10-acetyl-3,7-dihydroxyphenoxazine) CAT#A12222.
All reagents were Pre-warmed to room temperature before setting up experiment.
1. Dilute the 10× washing buffer into 1× washing buffer. 50 mL+450 mL de-ionized water. Do 1:10 dilution to the cell culture supernatant (Beta-TC-6 cell incubation).
2. Use one column (8 wells) wells for standard samples and QC1 and QC2, typically 0 and 5 ng/mL of insulin. On some plates full standard curves for insulin obtained as shown below.
3. Cover the unused wells well. Wash each well 3 times with 300 μL of 1× washing buffer each time. (2 minutes each washing step on the shaker.) Decant Wash Buffer and remove the residual amount from all wells by inverting the plate and tapping it smartly onto absorbent towels several times.
4. Add 20 μL Assay Buffer into that blank well and 10 μL into those wells for standards and samples.
5. Add 10 μL rat insulin standards and samples to the appropriate wells.
6. Add 80 μL Detection Antibody to all wells. Cover the plate and incubate at room temperature for 2 hours.
7. Tear off the plate cover and decant solutions from the plate. Tap to remove residual solutions in well.
8. Wash well 3 times with diluted wash buffer 300 μL per well per wash (2 minutes each washing step on the shaker). Tap to remove residual solutions as before.
9. Add 100 μL Enzyme Solution to each well. Cover plate with sealer and incubate with moderate shaking at room temperature for 30 min on the microtiter plate shaker.
10. Remove sealer, decant solutions from the plate and tap plate to remove the residual fluid.
11. Wash wells 6 times with diluted Wash Buffer, 300 μL per well per wash. Decant and tap after each wash to remove residual buffer.
12. Prepare 5 mL working solution of […] Amolex Red reagent containing 2.0 mM H2O2. 4.45 mL of 1× Reaction buffer+50 μL 10 mM Amplex Reagent+500 μL 20 mM H2O2.
13. Add 100 μL of the Amplex Red reagent/H2O2 to each well.
14. Incubate the reactions. Incubate at room temperature for 30 minutes, protected from light (using foil to wrap the plate). […]

TRPM5 = molecular target: T1, TRPM5 (Homo sapiens, UniProt Q9NZQ8); test: TRPM5 inhibition (FLIPR Membrane Potential Assay); type: cell-based
T1 sequence (Q9NZQ8 1-1165): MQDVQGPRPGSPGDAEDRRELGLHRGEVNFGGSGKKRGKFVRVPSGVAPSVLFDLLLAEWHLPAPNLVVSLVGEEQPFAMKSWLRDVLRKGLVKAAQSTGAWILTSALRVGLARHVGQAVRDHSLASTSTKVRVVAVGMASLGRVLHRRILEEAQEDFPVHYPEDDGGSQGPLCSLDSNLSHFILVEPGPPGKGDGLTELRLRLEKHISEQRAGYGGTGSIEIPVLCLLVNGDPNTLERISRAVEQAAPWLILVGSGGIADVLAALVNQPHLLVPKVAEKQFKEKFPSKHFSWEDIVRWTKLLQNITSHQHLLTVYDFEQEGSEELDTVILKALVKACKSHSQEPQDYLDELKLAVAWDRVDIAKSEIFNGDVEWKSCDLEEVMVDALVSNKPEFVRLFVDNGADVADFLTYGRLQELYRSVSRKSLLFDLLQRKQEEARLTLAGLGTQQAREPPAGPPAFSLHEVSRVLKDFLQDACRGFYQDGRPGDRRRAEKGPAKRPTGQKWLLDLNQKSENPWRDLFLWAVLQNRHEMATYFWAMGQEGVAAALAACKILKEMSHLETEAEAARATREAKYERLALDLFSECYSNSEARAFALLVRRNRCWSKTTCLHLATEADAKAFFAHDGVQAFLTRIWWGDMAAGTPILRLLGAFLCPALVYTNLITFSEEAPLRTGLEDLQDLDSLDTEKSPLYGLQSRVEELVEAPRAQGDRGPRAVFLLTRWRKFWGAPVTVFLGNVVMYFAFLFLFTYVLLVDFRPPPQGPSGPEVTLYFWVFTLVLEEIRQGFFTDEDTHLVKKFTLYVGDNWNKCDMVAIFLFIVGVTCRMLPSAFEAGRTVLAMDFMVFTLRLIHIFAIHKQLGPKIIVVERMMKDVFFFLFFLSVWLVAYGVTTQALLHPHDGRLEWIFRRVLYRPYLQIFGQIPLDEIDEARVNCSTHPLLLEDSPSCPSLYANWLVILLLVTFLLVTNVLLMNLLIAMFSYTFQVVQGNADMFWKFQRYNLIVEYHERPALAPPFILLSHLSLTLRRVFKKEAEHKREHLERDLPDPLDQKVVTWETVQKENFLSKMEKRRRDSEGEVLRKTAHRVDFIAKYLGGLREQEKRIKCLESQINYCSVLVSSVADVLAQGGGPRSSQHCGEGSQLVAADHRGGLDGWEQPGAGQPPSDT

[1] = test system: calcium-activated current in Beta TC6 cells; test: Whole-cell electrophysiology of calcium-activated current in Beta TC6 cells; type: cell-based, mouse; settings: pulsed doses, current versus time, FIG. 13
Description: Whole-cell recordings of TRP channel currents were obtained from acutely trypsinized beta TC-6 cells and TRPM5-expressing HEK cells. The bath solution was Hank's Balanced Salt Solution, composed of (mM); 1.2 CaCl2, 0.5 MgCl2-6H2O, 0.4 MgSO4.7H2O, 5.3 KCl, 0.4 KH2PO4, 137.9 NaCl, 0.3 Na2HPO4.7H2O, and 5.5 D-Glucose, with 20 mM HEPES (Invitrogen), pH 7.4 (NaOH). The internal pipette solution contained, in mM: 135 glutamic acid, 8 NaCl, 9 CaCl2, 10 HEPES and 10 EGTA, pH 7.2 (CsOH) (Sigma). Calculated concentration of free calcium in internal solution was 1.5 μM (http://www.stanford.edu/˜cpatton/webmaxc/webmaxcS.htm). Recording pipettes were pulled using a Flaming/Brown Micropipette Puller (Sutter Instruments), from fire-polished borosilicate glass, to approximately 2 MΩ.
Voltage clamp recordings were obtained in whole cell mode using MultiClamp 700B amplifier and Digidata 1322A converter running on Clampex 9.2 software (Axon Instruments). Recordings were performed at room temperature. The recording protocol consisted of a ramp from −80 mV potential to +80 mV, followed by a step to −80 mV. Peak current was measured at three different voltages: −80 mV, after ramping to +80 mV, then following a return to −80 mV. Series resistance was automatically compensated immediately after the break-in, and the resulting capacitance measurements were used for current density calculations. […]

[2] = compared to glucose-dependent insulin production

Row | Structure (SMILES) | Percent Enhancement of Insulin Secretion (Beta-TC-6 cells; tolbutamide tested at 30 μM, compared to glucose-dependent insulin production) | glucose dependence of stimulation of insulin release (Beta-TC-6 cells) | Percent Enhancement of Insulin Secretion (10 μM) (Beta-TC-6 cells; [2]) | IC50 (TRPM5) | effect on insulin secretion in combination with tolbutamide (Beta-TC-6 cells; FIG. 6) | inhibition of calcium-activated current [1]
1 | CCCCNC(=O)NS(=O)(=O)c1ccc(C)cc1 [Tolbutamide, tolbutamide, reference compound] | 228% | not sensitive to glucose levels |  |  |  | 
2 | COc1ccc(/C=N/NC(=O)CSc2cc(C)c3cccc(C)c3n2)cc1OC [Example 24, (4,8-Dimethylquinolin-2-ylsulfanyl)acetic acid (3,4-dimethoxybenzylidene)hydrazide] |  |  | 207% | 400 nM |  | 
3 | COc1ccc(/C=N/NC(=O)C2CC2c2ccccc2)cc1OC (centres unmarked) [Example 4, (E)-N′-(3,4-Dimethoxybenzylidene)-2-phenylcyclopropanecarbohydrazide] |  | increases insulin secretion in a glucose-dependent manner | 111% | 600 nM | additive effects | inhibition of the current
4 | COc1ccc(/C=N/NC(=O)COc2cccc(C)c2)cc1OC [Example 8, (E)-N′-(3,4-Dimethoxybenzylidene)-2-(m-tolyloxy)acetohydrazide] |  |  | 39% | 3000 nM |  | 
